Like-named read-outs stand apart in the source and are kept apart here.
Key:
[1] = test system: lncap (prostate cancer cells); assay: MTT cancer cell growth inhibition; assay type: cell-based; conditions: 72 hours incubation, lncap cells, read-out: GI50 lncap
Text: (§1) MTT assay principle is yellow MTT can penetrate membrane into the cell, succinic dehydrogenase of the mitochondria in living cells can make exogenous MTT reduction of insoluble in water of blue-violet acicular formazan for crystallization and deposition in the cell, crystallization can be dissolved dimethyl sulfoxide (DMSO) solution, detected its absorbance at 490 nm/570 nm wavelength by enzyme-linked immunosorbent assay, which can reflect the number of cells.
(§2) Using DMEM+10% FBS culture medium or using 1640+10% FBS culture, respectively.
(§3) Experimental group: 190 μl cell suspension+10 μl different concentrations of drugs (the final concentration is 10^−5˜10^−10 M)
(§4) a) Cells were seeded in 96-well plates with the inoculation of 1500/well, 190 μl/hole, 37° C., 5% of CO2 incubator overnight;
(§5) b) The next day each well was added 10 μl of different drugs. The final concentration of drug was 10^−5˜10^−10 M, three parallel holes; 37° C., 5% CO2 culture incubator for 72 hours incubation;
(§6) c) Per well was added 20 μl 5 mg/ml of MTT, 37° C., 5% CO2 culture incubator for 4 hours incubation;
(§7) d) The supernatant was discarded. Each well was added 100 μl of DMSO and oscillation;
(§8) e) 570 nm readings. Calculate cell viability. GI50 calculation based on the results.

[2] = test system: BGC-823 (human gastric cancer cells); assay: MTT cancer cell growth inhibition; assay type: cell-based; conditions: 72 hours incubation, BGC-823 cells, read-out: GI50 BGC8
Text: as §1, §2, §3, §4, §5, §6, §7, §8

[3] = test system: MCF-7 (human breast cancer cells); assay: MTT cancer cell growth inhibition; assay type: cell-based; conditions: 72 hours incubation, MCF-7 cells
Text: as §1, §2, §3, §4, §5, §6, §7, §8

[4] = test system: DU145 (human prostate cancer cells); assay: MTT cancer cell growth inhibition; assay type: cell-based; conditions: 72 hours incubation, DU145 cells, read-out: GI50 Du14
Text: as §1, §2, §3, §4, §5, §6, §7, §8

[5] = test system: A549 (human lung cancer cells); assay: MTT cancer cell growth inhibition; assay type: cell-based; conditions: 72 hours incubation, A549 cells, read-out: GI50 A549
Text: as §1, §2, §3, §4, §5, §6, §7, §8

[6] = test system: Hela (human cervical cancer cells); assay: MTT cancer cell growth inhibition; assay type: cell-based; conditions: 72 hours incubation, Hela cells, read-out: GI50 Hela
Text: as §1, §2, §3, §4, §5, §6, §7, §8

[7] = test system: HT1080 (human fibrosarcoma cells); assay: MTT cancer cell growth inhibition; assay type: cell-based; conditions: 72 hours incubation, HT1080 cells, read-out: GI50 HT10
Text: as §1, §2, §3, §4, §5, §6, §7, §8

[8] = test system: U937 (human leukemia cells); assay: MTT cancer cell growth inhibition; assay type: cell-based; conditions: 72 hours incubation
Text: as §1, §2, §3, §4, §5, §6, §7, §8

[9] = test system: PANC-1 (Pac-1, human pancreatic cancer cells); assay: MTT cancer cell growth inhibition; assay type: cell-based; conditions: 72 hours incubation, PANC-1 cells, read-out: GI50 PAN
Text: as §1, §2, §3, §4, §5, §6, §7, §8

HDAC2 = HDAC2 (Homo sapiens, UniProt Q92769); assay: HDAC biochemical activity measurement (fluorescent substrate deacetylation); conditions: HDAC2 enzyme, 37°, 30 minutes
Protocol: (§9) Measurement principle: The chemical activity of the compound is determined according to the degree of deacetylation inhibition of the HDAC enzyme. This experiment measured the degree of deacetylation related to tumor proliferation and metastasis of HDAC1, HDAC2, HDAC3, HDAC8, HDAC11 five subtypes HDAC enzymes. After the substrate containing an acetylated lysine side chain and HDAC enzyme are labeled with a fluorescent label, the fluorescent substrate is de acetyl. The fluorescent labeled substrate is cleaved by the enzyme, and the fluorescent substance is released, which generates 460 nm emission light under the excitation of 360 nm light.
(§10) Specific steps: HDAC substrate was diluted with reaction buffer to 200M (reaction concentration of 20M), the HDAC enzyme was diluted to the appropriate concentration, then added different concentrations of the test compounds and acted at 37 ? 30 minutes, and then added the same volume of 2-times concentration substrate developing solution (developer), incubated at room temperature for 15 minutes. Finally, the last reading measured with a microplate plate reader, excitation light was 360 nm, the emitted light was 460 nm, data processing software was Prime 4, and the results are shown in Table 1.

HDAC1 = HDAC1 (Homo sapiens, UniProt Q13547); assay: as above; conditions: HDAC1 enzyme, 37°, 30 minutes
Protocol: as §9, §10

HDAC11 = target: T1, HDAC11 (Homo sapiens, UniProt Q96DB2); assay: as above; conditions: IC50 (μM) HDAC11, HDAC11 enzyme, 37°, 30 minutes
T1 sequence (Q96DB2 1-347): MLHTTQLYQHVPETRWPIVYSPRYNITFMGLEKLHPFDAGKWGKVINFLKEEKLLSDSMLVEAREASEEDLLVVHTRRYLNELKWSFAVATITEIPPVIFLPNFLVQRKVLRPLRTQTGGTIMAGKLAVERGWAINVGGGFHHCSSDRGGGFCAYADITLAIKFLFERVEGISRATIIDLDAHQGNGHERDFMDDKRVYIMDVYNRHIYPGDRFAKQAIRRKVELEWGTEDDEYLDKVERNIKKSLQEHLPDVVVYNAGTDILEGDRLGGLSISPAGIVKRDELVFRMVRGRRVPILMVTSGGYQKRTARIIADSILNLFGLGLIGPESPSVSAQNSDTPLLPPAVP
Protocol: as §9, §10

HDAC8 = target: T2, HDAC8 (Homo sapiens, UniProt Q9BY41); assay: as above; conditions: HDAC8 enzyme, 37°, 30 minutes
T2 sequence (Q9BY41 1-377): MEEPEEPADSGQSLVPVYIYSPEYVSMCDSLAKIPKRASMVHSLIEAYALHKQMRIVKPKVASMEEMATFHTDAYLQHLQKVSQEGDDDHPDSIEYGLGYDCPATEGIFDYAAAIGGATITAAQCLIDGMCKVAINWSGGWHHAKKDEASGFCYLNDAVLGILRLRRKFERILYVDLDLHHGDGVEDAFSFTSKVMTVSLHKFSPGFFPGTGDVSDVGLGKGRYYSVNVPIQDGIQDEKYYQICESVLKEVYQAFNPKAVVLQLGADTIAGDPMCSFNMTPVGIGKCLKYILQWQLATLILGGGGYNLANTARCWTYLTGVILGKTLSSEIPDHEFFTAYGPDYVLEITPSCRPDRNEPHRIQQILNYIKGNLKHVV
Protocol: as §9, §10

HDAC3 = HDAC3 (Homo sapiens, UniProt O15379); assay: as above; conditions: IC50 (μM) HDAC3, HDAC3 enzyme, 37°, 30 minutes
Protocol: as §9, §10

[10] = test system: MOLT-4 (human acute lymphoblastic leukemia cells); assay: MTT cancer cell growth inhibition; assay type: cell-based; conditions: 72 hours incubation, MOLT-4 cells, read-out: GI50 Molt-
Text: as §1, §2, §3, §4, §5, §6, §7, §8

HDAC7 = target: T3, HDAC7 (Homo sapiens, UniProt Q8WUI4); assay: HDAC biochemical activity measurement (fluorescent substrate deacetylation); conditions: HDAC7 enzyme, 37°, 30 minutes
T3 sequence (Q8WUI4 1-952): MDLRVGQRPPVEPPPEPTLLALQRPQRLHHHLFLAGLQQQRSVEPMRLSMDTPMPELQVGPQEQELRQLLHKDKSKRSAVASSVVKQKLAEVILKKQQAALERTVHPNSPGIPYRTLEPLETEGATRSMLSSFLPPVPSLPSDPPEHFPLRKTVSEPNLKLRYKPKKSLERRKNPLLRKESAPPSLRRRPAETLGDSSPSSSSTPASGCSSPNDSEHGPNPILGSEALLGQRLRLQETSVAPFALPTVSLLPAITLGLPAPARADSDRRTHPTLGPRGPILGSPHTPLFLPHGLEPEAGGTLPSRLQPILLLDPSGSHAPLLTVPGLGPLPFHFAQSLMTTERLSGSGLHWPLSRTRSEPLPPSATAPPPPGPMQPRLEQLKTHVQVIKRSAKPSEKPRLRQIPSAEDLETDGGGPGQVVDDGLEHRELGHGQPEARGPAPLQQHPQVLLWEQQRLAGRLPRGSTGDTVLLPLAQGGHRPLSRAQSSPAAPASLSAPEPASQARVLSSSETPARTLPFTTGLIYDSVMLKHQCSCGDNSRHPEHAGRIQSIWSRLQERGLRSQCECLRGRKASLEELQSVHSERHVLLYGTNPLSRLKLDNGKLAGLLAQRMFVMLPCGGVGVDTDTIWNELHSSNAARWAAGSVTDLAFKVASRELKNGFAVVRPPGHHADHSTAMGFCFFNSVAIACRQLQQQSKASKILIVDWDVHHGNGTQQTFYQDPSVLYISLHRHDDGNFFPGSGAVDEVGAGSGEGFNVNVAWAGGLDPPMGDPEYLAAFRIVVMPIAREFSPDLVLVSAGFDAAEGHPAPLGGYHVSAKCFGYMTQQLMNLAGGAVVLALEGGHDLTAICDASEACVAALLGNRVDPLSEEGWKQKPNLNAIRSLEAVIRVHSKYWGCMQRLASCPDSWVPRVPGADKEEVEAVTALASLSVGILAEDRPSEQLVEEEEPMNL
Protocol: Measurement principle: The chemical activity of the compound is determined according to the degree of deacetylation inhibition of the HDAC enzyme. […] After the substrate containing an acetylated lysine side chain and HDAC enzyme are labeled with a fluorescent label, the fluorescent substrate is de acetyl. The fluorescent labeled substrate is cleaved by the enzyme, and the fluorescent substance is released, which generates 460 nm emission light under the excitation of 360 nm light.
as §10

Chain of HDAC2 (Q92769 whole entry, species assumed): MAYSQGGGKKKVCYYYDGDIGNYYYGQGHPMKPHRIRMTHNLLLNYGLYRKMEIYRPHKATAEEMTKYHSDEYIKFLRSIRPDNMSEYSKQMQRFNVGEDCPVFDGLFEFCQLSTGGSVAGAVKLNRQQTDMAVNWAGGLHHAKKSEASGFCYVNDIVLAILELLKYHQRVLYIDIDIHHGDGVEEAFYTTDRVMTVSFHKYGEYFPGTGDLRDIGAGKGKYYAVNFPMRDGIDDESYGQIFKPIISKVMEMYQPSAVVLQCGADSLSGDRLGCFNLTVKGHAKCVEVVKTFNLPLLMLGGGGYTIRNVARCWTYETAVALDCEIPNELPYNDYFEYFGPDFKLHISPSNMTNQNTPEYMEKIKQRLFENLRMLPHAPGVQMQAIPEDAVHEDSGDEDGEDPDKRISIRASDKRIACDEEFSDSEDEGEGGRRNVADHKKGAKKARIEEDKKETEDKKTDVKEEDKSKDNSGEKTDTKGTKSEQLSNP
Chain of HDAC1 (Q13547 whole entry, species assumed): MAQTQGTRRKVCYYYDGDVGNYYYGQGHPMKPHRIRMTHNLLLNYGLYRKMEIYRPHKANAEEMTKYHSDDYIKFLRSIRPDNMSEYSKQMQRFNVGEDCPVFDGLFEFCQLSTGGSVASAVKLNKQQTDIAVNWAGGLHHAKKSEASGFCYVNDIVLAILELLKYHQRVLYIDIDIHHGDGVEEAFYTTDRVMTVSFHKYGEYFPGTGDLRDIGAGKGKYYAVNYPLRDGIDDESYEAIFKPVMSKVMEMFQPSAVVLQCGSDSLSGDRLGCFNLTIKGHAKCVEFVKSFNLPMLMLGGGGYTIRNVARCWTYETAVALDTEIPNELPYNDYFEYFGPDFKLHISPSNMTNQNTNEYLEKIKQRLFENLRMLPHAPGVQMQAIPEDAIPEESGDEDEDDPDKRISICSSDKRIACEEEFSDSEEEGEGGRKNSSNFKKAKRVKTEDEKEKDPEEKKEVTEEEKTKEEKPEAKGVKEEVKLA
Chain of HDAC3 (O15379 whole entry, species assumed): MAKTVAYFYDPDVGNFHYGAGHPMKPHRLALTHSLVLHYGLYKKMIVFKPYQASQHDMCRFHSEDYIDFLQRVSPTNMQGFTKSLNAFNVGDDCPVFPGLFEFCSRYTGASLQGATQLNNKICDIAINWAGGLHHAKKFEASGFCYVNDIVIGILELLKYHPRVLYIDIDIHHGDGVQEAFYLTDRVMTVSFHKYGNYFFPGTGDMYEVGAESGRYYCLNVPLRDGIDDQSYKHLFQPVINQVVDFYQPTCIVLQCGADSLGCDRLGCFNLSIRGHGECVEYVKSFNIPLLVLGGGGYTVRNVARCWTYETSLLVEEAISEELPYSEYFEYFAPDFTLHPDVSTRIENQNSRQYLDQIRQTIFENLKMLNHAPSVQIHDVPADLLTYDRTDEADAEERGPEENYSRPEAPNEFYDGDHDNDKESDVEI
Chain of HDAC3 (Q9Y618 395-489 partner limits assumed, species assumed): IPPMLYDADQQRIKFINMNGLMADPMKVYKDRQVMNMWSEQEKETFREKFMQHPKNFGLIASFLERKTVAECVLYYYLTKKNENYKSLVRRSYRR

| GI50 ([1]; Homo sapiens, LNCaP, 72 h) [nM] | GI50 [1] [nM] | GI50 [2] [nM] | GI50 [3] [nM] | GI50 [4] [nM] | GI50 [6] [nM] | GI50 [7] [nM] | GI50 [8] [nM] | GI50 [9] [nM] | GI50 [10] [nM] | IC50 (μM) HDAC7 (HDAC7) | GI50 [5] [nM] | SMILES | also measured |
| --- | --- | --- | --- | --- | --- | --- | --- | --- | --- | --- | --- | --- | --- |
| 43 | – | – | – | – | – | – | – | – | – | – | – | C/C=C1\NC(=O)c2ccc(SC)c(n2)CNC(=O)C[C@@H](/C=C/CCSC(=O)CCCC)OC(=O)[C@H](C(C)C)NC1=O [Compound 158] | GI50 ([2]; Homo sapiens, BGC-823, 72 h): 32 nM; GI50 ([3]; Homo sapiens, MCF7, 72 h): 21 nM; GI50 ([4]; Homo sapiens, DU-145, 72 h): 63 nM; GI50 ([5]; Homo sapiens, A549, 72 h): 37 nM; GI50 ([6]; Homo sapiens, HeLa, 72 h): 68 nM; GI50 ([7]; Homo sapiens, HT-1080, 72 h): 76 nM; GI50 ([8]; Homo sapiens, U-937, 72 h): 42 nM; GI50 ([9]; Homo sapiens, PANC-1, 72 h): 23 nM; IC50 (HDAC2): 0.028 µM; IC50 (HDAC1): 0.081 µM; IC50 (HDAC11): 0.092 µM; IC50 (HDAC8): 0.043 µM; IC50 (HDAC3): 0.053 µM |
| – | 16 | 66 | 55 | 29 | 76 | 58 | 86 | 21 | 46 | no activity | – | C/C=C1\NC(=O)c2nc(cc(SC)n2)CNC(=O)C[C@@H](/C=C/CCSC(C)=O)OC(=O)[C@H](C(C)C)NC1=O [Compound 216] | – |
| – | 34 | 35 | 63 | 27 | – | 21 | 91 | 73 | 99 | no activity | 72 | C/C=C1\NC(=O)c2ncc(SC)c(n2)CNC(=O)C[C@@H](/C=C/CCSC(C)=O)OC(=O)[C@H](C(C)C)NC1=O [Compound 217] | – |
| – | 34 | 38 | 43 | 51 | 67 | 95 | – | – | 33 | no activity | 58 | C/C=C1\NC(=O)c2cc(SC)cc(n2)CNC(=O)C[C@@H](/C=C/CCSC(C)=O)OC(=O)[C@H](C(C)C)NC1=O [Compound 224] | – |
| 53 | – | – | – | – | – | – | – | – | – | – | – | C/C=C1\NC(=O)c2cccc(n2)CNC(=O)C[C@@H](/C=C/CCSC(=O)CCCCCCC)OC(=O)[C@@H](C)NC1=O [Compound 236] | – |

— patent publication US20160280736A1, “CYCLIC PEPTIDE COMPOUND, AND PREPARATION METHOD, PHARMACEUTICAL COMPOSITION AND USE THEREOF” (HANGZHOU GUANYU BIO-MEDICAL CO., LTD., priority 2013, published 2016)
